Laboratory results from paper PMC3731216, “Origin and Functional Diversification of an Amphibian Defense Peptide Arsenal” (PLoS Genetics, 2013).
In brackets after ≈: the same amount, converted by molar mass. Where a SMILES comes first, the peptide text is derived from it.

What was measured:
[1] = tested on: T-lymphocytes (naive C57Black/6 splenocytes); assay: Inhibition of Concanavalin A-induced T-cell proliferation in spleen cell cultures; assay type: cell-based, Mus musculus; settings: lowest concentration causing at least 50% inhibition of Concanavalin A-induced T-cell proliferation; 2×10^5 splenocytes, 24 h + 18 h [3H]thymidine, 37°C; min–max if variable
Method: (§1) Seventeen predicted and recovered peptides were de novo synthesized using solid-phase technology by CASLO Laboratory ApS (Lyngby, Denmark) and delivered as HPLC-purified (>95%) trifluoracetate (TFA) salts. The peptide salts were stored as 5.12 mM stock solutions in 0.01% (V/V) acetic acid/0.2% (m/V) BSA. Peptides were tested against Escherichia coli (ATCC 25922) and Pseudomonas aeruginosa (ATCC 15692), Staphylococcus aureus (ATCC 25923), Micrococcus luteus, Saccharomyces cerevisiae, a protozoan parasite (Trypanosoma brucei brucei), mouse (Mus musculus) red blood cells and mouse spleen tissue cultures (containing 50–60% B-cells, ∼25–30% T-cells, and 5% myeloid cells). All assays were performed in duplicate or triplicate.
Activity against T-lymphocytes was assessed as the lowest peptide concentration in a series of twofold dilutions causing at least 50% inhibition of Concanavalin A-induced T-cell proliferation (IC50). Solutions containin 2×10^5 naive C57Black/6 splenocytes in the presence of 2.5 µg Concanavalin A were added to polypropylene 96-well plates containing the serial peptide dilutions to obtain total volumes of 100 µl. After incubation for 24 hours at 37°C in a humidified atmosphere, the cells were pulsed with [^3H]thymidine and incubated for an additional 18 hours. The amount of [^3H]thymidine incorporation was assessed by a β-counter as a measure of cell proliferation and the percentage of proliferation inhibition for each peptide concentration was calculated as 100×(1−(Tobs/T100%)), where Tobs is the [^3H]thymidine level measured for the peptide concentration, and T100% is the [^3H]thymidine level measured for Concanavalin-A-induced cell proliferation in the absence of peptide (representing 100% proliferation).

Saccharomyces cerevisiae = assay: MIC assay in liquid medium (twofold dilutions) against S. cerevisiae; assay type: cell-based; settings: lowest concentration in twofold dilutions with no growth; 5×10^5 CFU/ml, Luria-Bertani broth, 30°C, 18 hours, read by eye; duplicate or triplicate, min–max if variable
Method: as §1
(§2) Activity against the bacteria and fungus was measured by assessing the lowest peptide concentration in a series of twofold dilutions at which no growth was detected (known as the minimum inhibitory concentration, MIC). Bacterial and yeast cultures (5×10^5 colony forming units/ml) were prepared in Müller-Hinton (MH) broth and Luria-Bertani (LB) broth respectively and transferred to serial dilutions of peptides ranging from 512 or 256 µM down to 1 or 0.5 µM in 96-well polypropylene plates. After incubation at 37°C (bacteria) or 30°C (S. cerevisiae) for 18 hours, growth of the cultures was checked by eye. In addition to MIC, we determined minimum microbicidal concentrations (MMC) by inoculating samples of the MIC assays on agar plates lacking peptides and checking for overnight growth. In all cases, MIC and MMC were identical.

[2] = tested on: Escherichia coli (ATCC 25922); assay: MIC assay in liquid medium (twofold dilutions) against E. coli; assay type: cell-based; settings: lowest concentration in twofold dilutions with no growth; 5×10^5 CFU/ml, Müller-Hinton broth, 37°C, 18 hours, read by eye; duplicate or triplicate, min–max if variable
Method: as §1, §2

mouse red blood cells = assay: Hemolysis of mouse red blood cells (HC50); assay type: cell-based; settings: lowest concentration causing at least 50% hemolysis; mouse blood diluted 1/100 in RPMI, 37°C, 30 minutes, OD 550 nm; 100% = 1% Tween-20
Method: as §1
Activity against mouse red blood cells was examined by assessing the lowest peptide concentration in a series of twofold dilutions causing at least 50% hemolysis (HC50). Briefly, heparinized blood was obtained by cardiac puncture of mice euthanized via CO2. The blood was diluted 1/100 in RPMI and added to polypropylene 96-well plates containing the serial peptide dilutions to obtain total volumes of 100 µl. The plates were incubated at 37°C in a humidified atmosphere for 30 minutes and centrifuged at 1400 rpm for 2 minutes to pellet intact red blood cells allowing visual observation of hemolysis. Supernatants were subsequently transferred to 96-well flat-bottom plates to allow spectrophotometry using an ELISA reader (OD measured at 550 nm). The percentage of hemolyis for each peptide concentration was calculated as 100×(ODobs−OD0%)/(OD100%−OD0%), where ODobs is the OD measured for the peptide concentration, OD0% is the average OD in the absence of peptides (0% hemolysis), and OD100% is the average OD in the presence of 1% Tween-20 (100% hemolysis).

Micrococcus luteus = assay: MIC assay in liquid medium (twofold dilutions) against M. luteus; assay type: cell-based; settings: lowest concentration in twofold dilutions with no growth; 5×10^5 CFU/ml, Müller-Hinton broth, 37°C, 18 hours, read by eye; duplicate or triplicate, min–max if variable
Method: as §1, §2

[3] = tested on: Staphylococcus aureus (ATCC 25923); assay: MIC assay in liquid medium (twofold dilutions) against S. aureus; assay type: cell-based; settings: lowest concentration in twofold dilutions with no growth; 5×10^5 CFU/ml, Müller-Hinton broth, 37°C, 18 hours, read by eye; duplicate or triplicate, min–max if variable
Method: as §1, §2

[4] = tested on: Pseudomonas aeruginosa (ATCC 15692); assay: MIC assay in liquid medium (twofold dilutions) against P. aeruginosa; assay type: cell-based; settings: lowest concentration in twofold dilutions with no growth; 5×10^5 CFU/ml, Müller-Hinton broth, 37°C, 18 hours, read by eye; duplicate or triplicate, min–max if variable
Method: as §1, §2

Row | Structure (SMILES) | IC50 [1] [µM] | MIC S. cerevisiae (Saccharomyces cerevisiae) [µM] | MIC E. coli [2] [µM] | HC50 Erythrocytes (mouse red blood cells) [µM] | MIC M. luteus (Micrococcus luteus) | MIC S. aureus [3] [µM] | MIC P. aeruginosa [4] [µM]
1 | CC[C@H](C)[C@H](NC(=O)[C@H](CC(C)C)NC(=O)[C@H](CCCCN)NC(=O)[C@H](CO)NC(=O)[C@H](C)NC(=O)CNC(=O)[C@H](CCCCN)NC(=O)[C@H](CC(C)C)NC(=O)[C@H](C)NC(=O)[C@H](CCSC)NC(=O)[C@H](CCCCN)NC(=O)[C@H](C)NC(=O)[C@H](Cc1ccccc1)NC(=O)[C@@H](NC(=O)CNC(=O)[C@H](Cc1ccccc1)NC(=O)[C@H](CC(C)C)NC(=O)[C@@H](N)CO)[C@@H](C)O)C(=O)N1CCC[C@H]1C(=O)N[C@@H](Cc1c[nH]cn1)C(=O)N[C@@H](CC(C)C)C(=O)N[C@@H](CC(C)C)C(=O)N1CCC[C@H]1C(=O)N[C@@H](CO)C(=O)N[C@@H](CCCNC(=N)N)C(=O)N[C@@H](CCC(N)=O)C(=O)N[C@@H](CCC(N)=O)C(=O)O [CPF-St4] (H-SLFGTFAKMALKGASKLIPHLLPSRQQ-OH) | 2 | 16 | 2 to 4 | 64 | 0,5 µM | 1 | 4 to 8
2 | CC[C@H](C)[C@H](NC(=O)[C@H](CC(C)C)NC(=O)[C@H](CCCCN)NC(=O)[C@H](CO)NC(=O)[C@H](C)NC(=O)CNC(=O)[C@H](CCCCN)NC(=O)[C@H](CC(C)C)NC(=O)[C@H](C)NC(=O)[C@H](C)NC(=O)[C@H](CCCCN)NC(=O)[C@H](C)NC(=O)[C@H](CC(C)C)NC(=O)[C@H](CC(C)C)NC(=O)CNC(=O)[C@H](Cc1ccccc1)NC(=O)[C@@H](NC(=O)CN)C(C)C)C(=O)N1CCC[C@H]1C(=O)N[C@@H](Cc1c[nH]cn1)C(=O)N[C@@H](CC(C)C)C(=O)N[C@@H](CC(C)C)C(=O)N1CCC[C@H]1C(=O)N[C@@H](CO)C(=O)N[C@@H](CCCNC(=N)N)C(=O)N[C@@H](CCC(N)=O)C(=O)N[C@@H](CCC(N)=O)C(=O)O [CPF-St5] (H-GVFGLLAKAALKGASKLIPHLLPSRQQ-OH) | 8 | 16 (≈ 45 µg/mL) | 1 (≈ 2.81 µg/mL) | 64 | 0,5 µM | 1 (≈ 2.81 µg/mL) | 4 to 8
3 | CC[C@H](C)[C@H](NC(=O)[C@@H](N)Cc1ccccc1)C(=O)NCC(=O)N[C@@H](C)C(=O)N[C@@H](CC(C)C)C(=O)N[C@@H](CC(C)C)C(=O)N[C@@H](CCCNC(=N)N)C(=O)N1CCC[C@H]1C(=O)N[C@@H](C)C(=O)N[C@@H](CC(C)C)C(=O)N[C@@H](CCCCN)C(=O)N[C@@H](CC(C)C)C(=O)N[C@@H](CC(C)C)C(=O)N[C@@H](C)C(=O)NCC(=O)N[C@@H](CCCCN)C(=O)O [PFQa-St2] (H-FIGALLRPALKLLAGK-OH) | 128 | 128 (≈ 215 µg/mL) | 32 (≈ 53.8 µg/mL) | 256 | 4 µM (≈ 6.72 µg/mL) | 16 (≈ 26.9 µg/mL) | 256 (≈ 430 µg/mL)
4 | CC[C@H](C)[C@H](NC(=O)[C@H](C)NC(=O)[C@H](CCC(=O)O)NC(=O)[C@H](CC(C)C)NC(=O)CNC(=O)CNC(=O)[C@H](CCCCN)NC(=O)[C@H](C)NC(=O)[C@H](Cc1ccccc1)NC(=O)[C@H](CCCCN)NC(=O)[C@H](CCCCN)NC(=O)[C@H](CC(C)C)NC(=O)CNC(=O)CNC(=O)[C@H](CC(C)C)NC(=O)[C@@H](NC(=O)[C@@H](NC(=O)[C@H](CO)NC(=O)[C@H](Cc1c[nH]c2ccccc12)NC(=O)[C@@H](NC(=O)CN)C(C)C)[C@@H](C)O)C(C)C)C(=O)N[C@H](C(=O)N[C@@H](CC(N)=O)C(=O)N1CCC[C@H]1C(=O)N[C@@H](CCCCN)C(=O)O)C(C)C [XPF-St1] (H-GVWSTVLGGLKKFAKGGLEAIVNPK-OH) | 16 | 32 (≈ 82.2 µg/mL) | 4 (≈ 10.3 µg/mL) | 128 | 0,5 µM | 32 to 64 | 32 (≈ 82.2 µg/mL)
5 | CC[C@H](C)[C@H](NC(=O)[C@H](CO)NC(=O)[C@H](CO)NC(=O)[C@H](C)NC(=O)[C@H](Cc1c[nH]c2ccccc12)NC(=O)CN)C(=O)NCC(=O)N[C@@H](CO)C(=O)N[C@H](C(=O)N[C@@H](CC(C)C)C(=O)NCC(=O)N[C@@H](CCCCN)C(=O)N[C@@H](Cc1ccccc1)C(=O)N[C@@H](C)C(=O)N[C@@H](CCCCN)C(=O)NCC(=O)NCC(=O)N[C@@H](C)C(=O)N[C@@H](CCC(N)=O)C(=O)N[C@@H](C)C(=O)N[C@@H](Cc1ccccc1)C(=O)N[C@@H](CC(C)C)C(=O)N[C@@H](CCC(N)=O)C(=O)N1CCC[C@H]1C(=O)N[C@@H](CCCCN)C(=O)O)[C@@H](C)CC [XPF-St4] (H-GWASSIGSILGKFAKGGAQAFLQPK-OH) | 64 | 64 (≈ 161 µg/mL) | 32 (≈ 80.6 µg/mL) | 256 | 0,5 µM | >256 | 128 (≈ 323 µg/mL)
6 | CC[C@H](C)[C@H](NC(=O)[C@@H]1CCCN1C(=O)[C@H](CCC(N)=O)NC(=O)[C@@H](NC(=O)[C@H](CC(C)C)NC(=O)[C@H](CCCCN)NC(=O)[C@@H]1CCCN1C(=O)CNC(=O)[C@H](CC(C)C)NC(=O)[C@H](CCC(N)=O)NC(=O)[C@H](CCSC)NC(=O)[C@H](C)NC(=O)[C@H](CCCCN)NC(=O)[C@H](CCCNC(=N)N)NC(=O)[C@H](CC(C)C)NC(=O)[C@@H](NC(=O)[C@H](CCCCN)NC(=O)CNC(=O)[C@H](Cc1ccccc1)NC(=O)[C@@H](NC(=O)[C@@H]1CCCN1C(=O)[C@H](CC(C)C)NC(=O)[C@H](Cc1c[nH]c2ccccc12)NC(=O)CN)[C@@H](C)O)[C@@H](C)CC)[C@@H](C)CC)C(=O)O [XPF-St5] (H-GWLPTFGKILRKAMQLGPKLIQPI-OH) | 8 to 16 | 32 (≈ 86.6 µg/mL) | 1 to 2 | 128 | 1 µM (≈ 2.71 µg/mL) | 16 (≈ 43.3 µg/mL) | 8 to 16
7 | CC[C@H](C)[C@H](NC(=O)[C@H](C)NC(=O)[C@H](CC(=O)O)NC(=O)[C@H](CC(C)C)NC(=O)CNC(=O)CNC(=O)[C@H](CCCCN)NC(=O)[C@H](C)NC(=O)[C@H](Cc1ccccc1)NC(=O)[C@H](CCCCN)NC(=O)[C@H](CCCCN)NC(=O)[C@H](CC(C)C)NC(=O)CNC(=O)CNC(=O)[C@H](CC(C)C)NC(=O)[C@@H](NC(=O)[C@@H](NC(=O)[C@H](CO)NC(=O)[C@H](Cc1c[nH]c2ccccc12)NC(=O)[C@@H](NC(=O)CN)C(C)C)[C@@H](C)O)[C@@H](C)CC)C(=O)N[C@H](C(=O)N[C@@H](CC(N)=O)C(=O)N1CCC[C@H]1C(=O)N[C@@H](CCCCN)C(=O)O)C(C)C [XPF-St6] (H-GVWSTILGGLKKFAKGGLDAIVNPK-OH) | 8 | 8 (≈ 20.6 µg/mL) | 2 to 4 | 64 | 0,5 µM | 8 to 16 | 16 (≈ 41.1 µg/mL)
